# Data reported in patent US12569452B2, “Ophthalmic compositions comprising F6H8” (NOVALIQ GMBH, priority 2017, dated 2026).
# Key:
# [1] = Quantitative autoradiography of whole head after single topical ocular dose of 14C-F6H8; format: in vivo, female Dutch Belted rabbits; settings: single dose 35 μl
# Description: Quantitative Autoradiography: Animals are euthanized with sodium pentobarbital and blood is collected via cardiac puncture. Immediately after blood collection, the animals were frozen for quantitative autoradiography. The frozen heads are embedded in chilled carboxymethyl cellulose and frozen into blocks. Appropriate sections are collected on adhesive tape at […], in a Leica CM 3600 cryomicrotome. Mounted sections are exposed for 4 days on phosphor imaging screens along with fortified blood standards for subsequent calibration of the image analysis software and subsequently scanned using a Typhoon scanner. The autoradiographic standard image data are sampled using InterFocus Imaging Ltd. MCID™ Analysis software to create a calibrated standard curve. Specified tissues and fluids are analysed. Tissue concentrations are interpolated from each standard curve as nanocuries/g and then converted to ng equivalents/g on the basis of the test article specific activity.
# The highest concentrations (>10000 ng equivalents ^14C—F6H8/g) are found in the anterior tissues in the order eyelid margin (443000)>internal eyelid (171000)>cornea (33500). Other tissues with high concentrations are the external eyelid skin, nasolacrimal duct, and nasal turbinates.
# [2] = Ocular tissue distribution after single topical ocular dose of 14C-F6H8, liquid scintillation counting; format: in vivo, Dutch Belted (pigmented) female rabbits; settings: for Mean concentration of radioactivity, Conjunctiva (bulbar) / Mean concentration of radioactivity, Conjunctiva (palpebral) / Mean concentration of radioactivity, Cornea / Mean concentration of radioactivity, Lacrimal gland (accessory) / Mean concentration of radioactivity, Lacrimal gland (main) / Mean concentration of radioactivity, Meibomian glands / Mean concentration of radioactivity, Sclera (anterior) / Mean concentration of radioactivity, Tears: single topical ocular dose
# Description: The study is conducted to assess the ocular tissue distribution after topical ocular administration of ^14C-1-Perfluorohexyloctane (F6H8, NovaTears®) to Dutch Belted (pigmented) female rabbits.
# On the first day of dosing, 5.474 mL of ^14C—F6H8 is combined with 9.526 mL of F6H8. The dose formulation is magnetically stirred and appears to be a colorless solution. The dose formulation is separated into vials to provide one vial per day for dose administration and it is stored at approximately −20° C. One vial per day is thawed prior to dose administration. In between dose administrations, the vial is capped and stored at approximately 5° C. when not in use.
# Animals are not fasted prior to dose administration. All animals receive single 35 μL-drops of the dose formulation in each eye, with the right eye dosed first. All collection times are based on the time of dosing of the second (left) eye for the last dose, as applicable.
# After the dose is administered, the eye is allowed to close naturally. Each animal is then restrained for approximately 1 minute to prevent rubbing of the eyes.
# Tears and Ocular Tissue Collection: Tears are collected from two animals per group per time point at 0.25, 0.5, 1, 2, 4, 8, and 24 hours post-dose following the single dose or the last dose of the multiple dose scheme. Tears are collected using Tear Flo Test (TFT) strips that were dye free. One strip of paper is used for each eye for each time point. Following collection, the tube containing the strip is placed on dry ice or stored at approximately −70° C. until analysed.
# At the time of sacrifice, both eyes are enucleated and ocular tissues including Aqueous humour, Conjunctiva (bulbar), Conjunctiva (palpebral), Lacrimal gland (accessory), Lacrimal gland (main), Meibomian glands (tarsal plate), Choroid-Retinal pigmented epithelium (Choroid-RPE), Cornea, Iris-ciliary body (ICB), Retina, Sclera (anterior), Sclera (posterior), Vitreous humour are collected.
# Radioanalysis: All samples are analyzed for radioactivity in a Model 2900TR liquid scintillation counter (Packard Instrument Company) for at least 5 minutes or 100,000 counts, utilizing Ultima Gold XR or Hionic Fluor scintillation cocktails (Perkin Elmer). Each sample is homogenized before radioanalysis, unless the entire sample is used for analysis. All samples are analyzed in duplicate if sample size allows.
# For Conjunctiva (bulbar and palpebral), Cornea, Lacrimal gland (main), Meibomian glands, Retina, and Sclera (anterior and posterior), each sample is digested in 2M sodium hydroxide in ethanol (80:20, v:v) and maintained at room temperature or in an oven set no higher than 30° C. until dissolved. Scintillation cocktail is added, and the samples are shaken and analyzed directly by LSC.
# For Lacrimal gland (accessory), each sample is digested in 2M sodium hydroxide in ethanol (80:20, v:v) and maintained at room temperature or in an oven set no higher than 30° C. until dissolved. The sample is homogenized by mixing and duplicate weighed aliquots are analyzed directly by LSC.
# For Tears, at least 10 mL of Ultima Gold XR scintillation cocktail is added, and the samples are shaken and analyzed by LSC.
# Single topical ocular administration, radioanalysis of ocular tissues: The rabbits received a single topical ocular administration in both eyes. The target dose level is 45.6 mg/eye (25 μCi/eye). Following the single topical ocular dose of 35 μl of ^14C—F6H8, two animals per time point are sacrificed at 0.25, 0.5, 1, 2, 4, 8, and 24 hours post-dose in a sparse sampling profile. Ocular tissues (including tears collected prior to sacrifice) are collected from all animals at sacrifice.
# [3] = single dose, between 0.25 and 4 hours post-dose
substance,measurement,setting,value
^14C-1-Perfluorohexyloctane [^14C-F6H8],"Highest concentration, cornea",[1],33500 ng equivalents ^14C—F6H8/g
same,"Highest concentration, eyelid margin",[1],443000 ng equivalents ^14C—F6H8/g
same,"Highest concentration, internal eyelid",[1],171000 ng equivalents ^14C—F6H8/g
same,Radioactivity in the iris-ciliary body and choroid-RPE,[2]; single dose,No radioactivity is detected
same,Radioactivity in the vitreous humour and retina,[2]; single dose,Low levels
same,"Highest mean concentration, Meibomian glands",[2]; [3],294000 ng equivalents ^14C—F6H8/g
same,"Highest mean concentration, accessory lacrimal gland",[2]; [3],4280 ng equivalents ^14C—F6H8/g
same,"Highest mean concentration, anterior sclera",[2]; [3],2270 ng equivalents ^14C—F6H8/g
same,"Highest mean concentration, bulbar conjunctiva",[2]; [3],5450 ng equivalents ^14C—F6H8/g
same,"Highest mean concentration, cornea",[2]; [3],8230 ng equivalents ^14C—F6H8/g
same,"Highest mean concentration, main lacrimal gland",[2]; [3],4130 ng equivalents ^14C—F6H8/g
same,"Highest mean concentration, palpebral conjunctiva",[2]; [3],14200 ng equivalents ^14C—F6H8/g
same,"Highest mean concentration, tears",[2]; [3],2390000 ng equivalents ^14C—F6H8/g
same,"Mean concentration of radioactivity, Conjunctiva (bulbar)",[2]; 0.25 h post-dose,5450 ng Equivalents ^14C-F6H8/g
same,"Mean concentration of radioactivity, Conjunctiva (palpebral)",[2]; 0.25 h post-dose,14200 ng Equivalents ^14C-F6H8/g
same,"Mean concentration of radioactivity, Cornea",[2]; 0.25 h post-dose,2040 ng Equivalents ^14C-F6H8/g
same,"Mean concentration of radioactivity, Lacrimal gland (accessory)",[2]; 0.25 h post-dose,577 ng Equivalents ^14C-F6H8/g
same,"Mean concentration of radioactivity, Lacrimal gland (main)",[2]; 0.25 h post-dose,1670 ng Equivalents ^14C-F6H8/g
same,"Mean concentration of radioactivity, Meibomian glands",[2]; 0.25 h post-dose,294000 ng Equivalents ^14C-F6H8/g
same,"Mean concentration of radioactivity, Sclera (anterior)",[2]; 0.25 h post-dose,1140 ng Equivalents ^14C-F6H8/g
same,"Mean concentration of radioactivity, Tears",[2]; 0.25 h post-dose,2390000 ng Equivalents ^14C-F6H8/g
same,"Mean concentration of radioactivity, Conjunctiva (bulbar)",[2]; 0.5 h post-dose,3680 ng Equivalents ^14C-F6H8/g
same,"Mean concentration of radioactivity, Conjunctiva (palpebral)",[2]; 0.5 h post-dose,5180 ng Equivalents ^14C-F6H8/g
same,"Mean concentration of radioactivity, Cornea",[2]; 0.5 h post-dose,8230 ng Equivalents ^14C-F6H8/g
same,"Mean concentration of radioactivity, Lacrimal gland (accessory)",[2]; 0.5 h post-dose,0.00 ng Equivalents ^14C-F6H8/g
same,"Mean concentration of radioactivity, Lacrimal gland (main)",[2]; 0.5 h post-dose,2770 ng Equivalents ^14C-F6H8/g
same,"Mean concentration of radioactivity, Meibomian glands",[2]; 0.5 h post-dose,102000 ng Equivalents ^14C-F6H8/g
same,"Mean concentration of radioactivity, Sclera (anterior)",[2]; 0.5 h post-dose,2270 ng Equivalents ^14C-F6H8/g
same,"Mean concentration of radioactivity, Tears",[2]; 0.5 h post-dose,995000 ng Equivalents ^14C-F6H8/g
same,"Mean concentration of radioactivity, Conjunctiva (bulbar)",[2]; 1 h post-dose,3320 ng Equivalents ^14C-F6H8/g
same,"Mean concentration of radioactivity, Conjunctiva (palpebral)",[2]; 1 h post-dose,5700 ng Equivalents ^14C-F6H8/g
same,"Mean concentration of radioactivity, Cornea",[2]; 1 h post-dose,6110 ng Equivalents ^14C-F6H8/g
same,"Mean concentration of radioactivity, Lacrimal gland (accessory)",[2]; 1 h post-dose,255 ng Equivalents ^14C-F6H8/g
same,"Mean concentration of radioactivity, Lacrimal gland (main)",[2]; 1 h post-dose,641 ng Equivalents ^14C-F6H8/g
same,"Mean concentration of radioactivity, Meibomian glands",[2]; 1 h post-dose,57600 ng Equivalents ^14C-F6H8/g
same,"Mean concentration of radioactivity, Sclera (anterior)",[2]; 1 h post-dose,1300 ng Equivalents ^14C-F6H8/g
same,"Mean concentration of radioactivity, Tears",[2]; 1 h post-dose,444000 ng Equivalents ^14C-F6H8/g
same,"Mean concentration of radioactivity, Conjunctiva (bulbar)",[2]; 2 h post-dose,3050 ng Equivalents ^14C-F6H8/g
same,"Mean concentration of radioactivity, Conjunctiva (palpebral)",[2]; 2 h post-dose,4230 ng Equivalents ^14C-F6H8/g
same,"Mean concentration of radioactivity, Cornea",[2]; 2 h post-dose,3230 ng Equivalents ^14C-F6H8/g
same,"Mean concentration of radioactivity, Lacrimal gland (accessory)",[2]; 2 h post-dose,1450 ng Equivalents ^14C-F6H8/g
same,"Mean concentration of radioactivity, Lacrimal gland (main)",[2]; 2 h post-dose,1530 ng Equivalents ^14C-F6H8/g
same,"Mean concentration of radioactivity, Meibomian glands",[2]; 2 h post-dose,69200 ng Equivalents ^14C-F6H8/g
same,"Mean concentration of radioactivity, Sclera (anterior)",[2]; 2 h post-dose,767 ng Equivalents ^14C-F6H8/g
same,"Mean concentration of radioactivity, Tears",[2]; 2 h post-dose,700000 ng Equivalents ^14C-F6H8/g
same,"Mean concentration of radioactivity, Conjunctiva (bulbar)",[2]; 4 h post-dose,1610 ng Equivalents ^14C-F6H8/g
same,"Mean concentration of radioactivity, Conjunctiva (palpebral)",[2]; 4 h post-dose,2500 ng Equivalents ^14C-F6H8/g
same,"Mean concentration of radioactivity, Cornea",[2]; 4 h post-dose,4480 ng Equivalents ^14C-F6H8/g
same,"Mean concentration of radioactivity, Lacrimal gland (accessory)",[2]; 4 h post-dose,4280 ng Equivalents ^14C-F6H8/g
same,"Mean concentration of radioactivity, Lacrimal gland (main)",[2]; 4 h post-dose,4130 ng Equivalents ^14C-F6H8/g
same,"Mean concentration of radioactivity, Meibomian glands",[2]; 4 h post-dose,29100 ng Equivalents ^14C-F6H8/g
same,"Mean concentration of radioactivity, Sclera (anterior)",[2]; 4 h post-dose,1170 ng Equivalents ^14C-F6H8/g
same,"Mean concentration of radioactivity, Tears",[2]; 4 h post-dose,207000 ng Equivalents ^14C-F6H8/g
same,"Mean concentration of radioactivity, Conjunctiva (bulbar)",[2]; 8 h post-dose,1340 ng Equivalents ^14C-F6H8/g
same,"Mean concentration of radioactivity, Conjunctiva (palpebral)",[2]; 8 h post-dose,1790 ng Equivalents ^14C-F6H8/g
same,"Mean concentration of radioactivity, Cornea",[2]; 8 h post-dose,6080 ng Equivalents ^14C-F6H8/g
same,"Mean concentration of radioactivity, Lacrimal gland (accessory)",[2]; 8 h post-dose,2110 ng Equivalents ^14C-F6H8/g
same,"Mean concentration of radioactivity, Lacrimal gland (main)",[2]; 8 h post-dose,2120 ng Equivalents ^14C-F6H8/g
same,"Mean concentration of radioactivity, Meibomian glands",[2]; 8 h post-dose,21100 ng Equivalents ^14C-F6H8/g
same,"Mean concentration of radioactivity, Sclera (anterior)",[2]; 8 h post-dose,1330 ng Equivalents ^14C-F6H8/g
same,"Mean concentration of radioactivity, Tears",[2]; 8 h post-dose,6660 ng Equivalents ^14C-F6H8/g
same,"Mean concentration of radioactivity, Conjunctiva (bulbar)",[2]; 24 h post-dose,1090 ng Equivalents ^14C-F6H8/g
same,"Mean concentration of radioactivity, Conjunctiva (palpebral)",[2]; 24 h post-dose,2270 ng Equivalents ^14C-F6H8/g
same,"Mean concentration of radioactivity, Cornea",[2]; 24 h post-dose,2730 ng Equivalents ^14C-F6H8/g
same,"Mean concentration of radioactivity, Lacrimal gland (accessory)",[2]; 24 h post-dose,1500 ng Equivalents ^14C-F6H8/g
same,"Mean concentration of radioactivity, Lacrimal gland (main)",[2]; 24 h post-dose,1810 ng Equivalents ^14C-F6H8/g
same,"Mean concentration of radioactivity, Meibomian glands",[2]; 24 h post-dose,14700 ng Equivalents ^14C-F6H8/g
same,"Mean concentration of radioactivity, Sclera (anterior)",[2]; 24 h post-dose,611 ng Equivalents ^14C-F6H8/g
same,"Mean concentration of radioactivity, Tears",[2]; 24 h post-dose,1300 ng Equivalents ^14C-F6H8/g
